For assay [1], the target named is T1, melatonin receptor (Oryctolagus cuniculus, UniProt G1SUP2).
T1 construct: Typically, the rabbit retina tissues preincubation with [^3 H]-dopamine for 10 minutes; from tissue; host or cells: rabbit retina (superfused retinal tissue)
T1 sequence (G1SUP2 1-362): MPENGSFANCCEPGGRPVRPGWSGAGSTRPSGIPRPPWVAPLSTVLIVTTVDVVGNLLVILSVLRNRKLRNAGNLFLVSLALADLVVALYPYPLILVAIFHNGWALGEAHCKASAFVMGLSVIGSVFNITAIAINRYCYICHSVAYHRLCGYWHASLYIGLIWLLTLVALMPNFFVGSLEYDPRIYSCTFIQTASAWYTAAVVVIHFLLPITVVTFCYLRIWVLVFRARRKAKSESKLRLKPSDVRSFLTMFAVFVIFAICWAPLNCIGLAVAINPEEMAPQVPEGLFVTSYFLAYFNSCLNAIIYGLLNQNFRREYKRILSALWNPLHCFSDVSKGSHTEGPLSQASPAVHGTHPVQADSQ
Briefly: Inhibition of calcium-dependent [3H]dopamine release from rabbit retina (melatonin agonist assay). It counts as cell-based. Particulars: for inhibition at 1 µM: 1 μM concentration of test compound, read-out: % Maximal Inhibition of [3H]dopamine release; for IC50: compound added before S2, S-sulpiride 0.1 μM present. On the procedure: Accordingly, all experiments were run in the presence of S-sulpiride (0.1 μM) to block D-2 dopamine autoreceptors present in the dopamine amacrine cells of retina.
Thus, the lower the IC50, the greater the agonistic activity.
Assays were performed as described in Dubocovich, J. Pharm. […] Retinal tissues are incubated for 10 min at 37° C. in the presence of 0.1 μM [^3 H]dopamine. The tissue was then washed in Krebs' solution at 37° C. and transferred to individual cylindrical plastic tubes having a thin nylon mesh on the bottom. These plastic tubes were then transferred to individual glass superfusion chambers containing platinum electrodes 30 mm apart. The tissue samples are superfused with Krebs' solution, starting at time equal zero until a leveling off of the spontaneous release of radioactivity occurred (about 60 mins). A time equal 60 mins S1 is applied.
Tritium release, i.e., release of [^3 H]dopamine, was elicited by field stimulation at 3 Hz, 20 mA, 2 msec duration. Field stimulations were applied in each experiment at either 60 (S1) or 100 (S2), min after the end of the incubation with [^3 H]dopamine. Samples of the superfusate were collected before, during, and after the period of stimulation. At the end of each experiment, the retinal tissue contained in each chamber was solubilized and the tritium content remaining in the retinal tissue was determined by liquid scintillaton counting. [drawing 8]
The inhibition of [^3 H]dopamine overflow (the percentage of total tissue radioactivity released by field stimulation above the spontaneous release levels, expressed as the ratio S2 /S1) is plotted as a function of the molar concentrations of the test compound (logarithmic scale).

The target in assay [2] is melatonin receptor. Nature of the assay: Inhibition of 2-[125I]iodomelatonin binding to chicken retinal membranes. The conditions noted are these: for IC50: read-out: IC50, inhibition of 2-[125I]iodomelatonin binding to chicken retinal membranes, 0° C., 5 hr, in the dark. As to the method: Dubocovich, et al., Proc. Nat'l.
The compounds to be tested were dissolved in 1 mM HCl with 0.1% bovine serum albumin. Binding was initiated by addition of 220-μl aliquots of retinal membranes resuspended in the Tris-HCl buffer to tubes containing 20 μl of test compound or vehicle, and radioligand. […] Reactions were terminated by addition of 5 ml of ice-cold Tris-HCl buffer, and the contents were immediately filtered through glass-fiber filters (Schleicher & Schuell no. 30) soaked in 0.5% (vol/vol) polyethylenimine solution. Each filter was washed twice with 5 ml of the cold buffer. Radioactivity was determined in a gamma counter.

The target in assay [3] is T1, melatonin receptor. Nature of the assay: Antagonism of melatonin-induced inhibition of [3H]dopamine release from rabbit retina. It counts as cell-based. Particulars: for shift of the melatonin concentration effect curve: 0.1 μM and 1 μM of test compound, compared with melatonin alone.
Procedure: In this example, the test compound is added before the first period of electrical stimulation (S1) and remains present until the end of the experiment.
Typically, the rabbit retina tissues preincubation with [^3 H]-dopamine for 10 minutes is followed by a superfusion with Krebs solution at time equal zero. At time equal 20 minutes the test compound of interest is added. At time equal 60 minutes S1 is applied.
The ratio S2 /S1 can be plotted as a function of the molar concentrations of the test compound used (logarithmic scale).
The target of assay [4] is T1, melatonin receptor. The conditions noted are these: cited from earlier work.
In assay [5] the target is T1, melatonin receptor. The conditions noted are these: cited from earlier work. This is another data set of the same source.
The test system of assay [6] is melatonin receptor. The conditions noted are these: cited from earlier work.
A further assay concerns frog skin. Particulars: cited from earlier work.
Setting [7] is: test compound 0.1 μM, melatonin 1 nM.
Where [8] appears, read: test compound 0.1 μM, melatonin 10 nM.
[9] abbreviates: test compound 1 μM, melatonin 1 nM.
The mark [10] stands for this setting: test compound 1 μM, melatonin 10 nM.

A word on the inhibition: it is the percentage by which the read-out fell short of the control. One may read the IC50 as the concentration needed to halve the response being measured.

As for `CC(=O)NC1CC(Cc2ccccc2)c2ccccc2C1=O` (stereo not shown) [AH 028, 2-Acetamido-4-benzyl-1-tetralone], at melatonin receptor [1], the inhibition at 1 µM was determined as 60% and the IC50 turned out to be 16 nM. For the same molecule, the IC50 at melatonin receptor [2] amounted to 25000 nM.

Turning to `O=C(CCl)NC1CCc2ccccc2C1` (stereo not shown) [AH 011, 2-chloroacetamido-tetralin], on melatonin receptor [1], the inhibition at 1 µM was found to be 80% and the IC50 stood at 1.3 nM.

As to `CCC(=O)NC1CCc2cccc(OC)c2C1` (stereo not shown) [AH 002, 8-methoxy-2-propionamidotetralin], the “activity in competitively inhibiting the binding of 2-[125I]iodomelatonin to the melatonin binding site (in words)” value with melatonin receptor [2] is given as “high activity”.

In the case of `CCCC(=O)NC1CCc2ccccc2C1` (stereo not shown) [AH 020, 2-butyramido-tetralin], on melatonin receptor [2], the IC50 was determined as 2910 nM.

On to `CCC(=O)NC1Cc2ccccc2C(c2ccccc2)C1` (stereo not shown) [AH 024, 4-phenyl-2-propionamido-tetralin], for which the IC50 on melatonin receptor [1] is above 1000 nM; on melatonin receptor [2], 250 nM. Besides, the “antagonism of melatonin-induced inhibition of [3H]dopamine release (in words)” value at melatonin receptor [3] is “antagonize the melatonin-induced inhibition of [^3 H]dopamine release”. The “shift of the melatonin concentration effect curve” value on melatonin receptor [3] was “shift to the right”. The S2/S1 is given as 1.01 ± 0.07 on melatonin receptor [3] (test compound 0.1 μM, melatonin 0.1 nM); 0.76 ± 0.01 at melatonin receptor [3] (setting [7]); 0.25 ± 0.01 on melatonin receptor [3] (setting [8]); 0.91 ± 0.06 on melatonin receptor [3] (setting [9]); 0.61 ± 0.01 on melatonin receptor [3] (setting [10]). Moreover, the “activity in competitively inhibiting the binding of 2-[125I]iodomelatonin to the melatonin binding site (in words)” value in the assay with melatonin receptor [2] is recorded as “high activity”.

`COc1cccc2c1CC(NC(=O)C1CC1)CC2` (stereo not shown) [AH 015, 8-methoxy-2-cyclopropanecarbonylamido-tetralin]: on melatonin receptor [1], the “melatonin agonist activity (in words)” value is “melatonin agonists”, the inhibition at 1 µM worked out at 80% and the concentration for half-maximal inhibition (IC50) was determined as 2.51 nM. In addition, the IC50 at melatonin receptor [2] worked out at 2940 nM.

With `CCC(=O)NC1CCc2ccccc2C1` (stereo not shown) [AH 006, 2-propionamido-tetralin], at melatonin receptor [1], the inhibition at 1 µM stood at 70% and the IC50 was 8.13 nM. Moreover, the IC50 on melatonin receptor [2] is 13000 nM.

For `CC(=O)NC1CCc2ccccc2C1` (stereo not shown) [AH 005, 2-acetamidotetralin], on melatonin receptor [1], the inhibition at 1 µM was determined as 50% and the IC50 was 52.2 nM. Further, on melatonin receptor [2], the IC50 came out at 20000 nM.

`CC(=O)NC1Cc2ccccc2C(Cc2ccccc2)C1` (stereo not shown) [AH 025, 4-benzyl-2-acetamidotetralin]: at melatonin receptor [1], the “melatonin agonist activity (in words)” value is on record as “melatonin agonists”, the inhibition at 1 µM turned out to be 70% and the 50% inhibitory concentration (IC50) turned out to be 4 nM. In addition, in the assay with melatonin receptor [2], the “activity in competitively inhibiting the binding of 2-[125I]iodomelatonin to the melatonin binding site (in words)” value is “high activity” and the IC50 worked out at 400 nM.

Consider `CC(=O)NCCc1c(Cc2ccccc2)[nH]c2ccccc12` [Luzindole, 2-benzyl-N-acetyltryptamine], for which the “antagonism of the ability of melatonin to inhibit [3H]dopamine release” value on melatonin receptor [4] is “antagonize the ability of melatonin to inhibit [^3 H]dopamine release in a competitive fashion”. Further, the “effect on spontaneous outflow and calcium-dependent release of [3H]dopamine” value at melatonin receptor [5] (concentrations up to 10 μM, compound alone) is on record as “does not modify”.

In the case of `O=C(CCl)NC1Cc2ccccc2C(Cc2ccccc2)C1` (stereo not shown) [AH 029, 4-benzyl-2-chloroacetamido-tetralin], on melatonin receptor [1], the inhibition at 1 µM was found to be 70% and the IC50 turned out to be 10 nM.

On to `CCC(=O)NC1Cc2ccccc2C(Cc2ccccc2)C1` (stereo not shown) [AH 027, 4-benzyl-2-propionamido-tetralin], for which, on melatonin receptor [1], the “melatonin agonist activity (in words)” value is reported as “melatonin agonists”, the inhibition at 1 µM is 65% and the IC50 amounted to 13 nM. Further, in the assay with melatonin receptor [2], the “activity in competitively inhibiting the binding of 2-[125I]iodomelatonin to the melatonin binding site (in words)” value was “high activity” and the IC50 was determined as 790 nM.

As for `COc1cccc2c1CC(NC(=O)Cc1ccccc1)CC2` (stereo not shown) [AH 016, 8-methoxy-2-phenylacetamido-tetralin], on melatonin receptor [1], the inhibition at 1 µM amounted to 0% and the IC50 was above 1000 nM.

`CC(=O)NCCc1c[nH]c2ccccc12` [N-acetyltryptamine]: the “melatonin receptor activity in chicken retina (in words)” value in the assay on melatonin receptor [6] was “competitive melatonin receptor antagonist”. For the same molecule, the “melatonin receptor activity in rabbit retina (in words)” value at melatonin receptor [5] was “partial melatonin agonist”. In the assay with frog skin, the “effect on melatonin-induced lightening of α-MSH-induced darkening of frog skin” value is listed as “antagonize the melatonin-induced lightening”.

`COc1cccc2c1CC(NC(=O)CCl)CC2` (stereo not shown) [AH 017, 8-methoxy-2-chloroacetamidotetralin]: at melatonin receptor [1], the inhibition at 1 µM was 75% and the IC50 came out at 0.063 nM.

As to `COc1cccc2c1CCC(NC(C)=O)C2` (stereo not shown) [AH 018, 5-methoxy-2-acetamido-tetralin], the half-inhibitory concentration (IC50) at melatonin receptor [2] was 16000 nM.

In the case of `CCCC(=O)NC1CCc2cccc(OC)c2C1` (stereo not shown) [AH 013, 8-methoxy-2-n-butyramidotetralin], on melatonin receptor [1], the “melatonin agonist activity (in words)” value is “melatonin agonists”, the inhibition at 1 µM is 80% and the IC50 is 1.18 nM. Further, in the assay with melatonin receptor [2], the “activity in competitively inhibiting the binding of 2-[125I]iodomelatonin to the melatonin binding site (in words)” value is “high activity” and the IC50 came out at 257 nM.

Turning to `COc1cccc2c1CC(NC(=O)C(C)C)CC2` (stereo not shown) [AH 014, 8-methoxy-2-iso-butyramido-tetralin], on melatonin receptor [1], the inhibition at 1 µM stood at 80% and the IC50 came to 7.94 nM. At melatonin receptor [2], the IC50 stood at 4620 nM.

Regarding `COc1cccc2c1CC(NC(C)=O)CC2` (stereo not shown) [AH 001, 8-methoxy 2-acetamido-tetralin], in the assay on melatonin receptor [2], the “activity in competitively inhibiting the binding of 2-[125I]iodomelatonin to the melatonin binding site (in words)” value is “high activity”.

Turning to `COc1ccc2c(c1)CC(NC(C)=O)CC2` (stereo not shown) [AH 008, 7-methoxy-2-acetamido-tetralin], the IC50 at melatonin receptor [2] is above 10000 nM.

Turning to `CC(=O)NC1Cc2ccccc2C(c2ccccc2)C1` (stereo not shown) [AH 023, 4-phenyl-2-acetamidotetralin], the IC50 was above 1000 nM at melatonin receptor [1] and 630 nM on melatonin receptor [2]. Besides, at melatonin receptor [3], the “antagonism of melatonin-induced inhibition of [3H]dopamine release (in words)” value is “antagonize the melatonin-induced inhibition of [^3 H]dopamine release”. In addition, the “shift of the melatonin concentration effect curve” value at melatonin receptor [3] is “shift to the right”. Besides, the S2/S1 on melatonin receptor [3] (test compound 0.01 μM, melatonin 0.1 nM) is recorded as 0.69 ± 0.11; on melatonin receptor [3] (test compound 0.01 μM, melatonin 1 nM), 0.30 ± 0.04; at melatonin receptor [3] (setting [7]), 0.73 ± 0.04; at melatonin receptor [3] (setting [8]), 0.37 ± 0.06; on melatonin receptor [3] (test compound 1 μM, melatonin 0.1 nM), 1.02 ± 0.03; at melatonin receptor [3] (setting [9]), 0.92 ± 0.07. Moreover, the S2/S1 on melatonin receptor [3] (setting [10]) was determined as 0.69 ± 0.03. Further, the “activity in competitively inhibiting the binding of 2-[125I]iodomelatonin to the melatonin binding site (in words)” value with melatonin receptor [2] is recorded as “high activity”.

`O=C(CCl)NC1Cc2ccccc2C(c2ccccc2)C1` (stereo not shown) [AH 026, 4-phenyl-2-chloroacetamido-tetralin]: the IC50 at melatonin receptor [1] was above 1000 nM.

Take `COc1cccc2c1CC(NC(=O)c1ccccc1)CC2` (stereo not shown) [AH 007, 8-methoxy-2-benzoylamido-tetralin]: on melatonin receptor [1], the inhibition at 1 µM was found to be 40% and the IC50 amounted to 10 nM. For the same molecule, the IC50 at melatonin receptor [2] is above 10000 nM.

Turning to `O=C(NC1CCc2ccccc2C1)c1ccccc1` (stereo not shown) [AH 019, 2-benzoylamido-tetralin], the IC50 at melatonin receptor [2] was above 10000 nM.

The values are drawn from patent US5071875A (Northwestern University, priority 1989, dated 1991).
